Source: patent publication US20250051391A1, “PEPTIDE INHIBITORS AND METHODS FOR INHIBITING PROTEIN AGGREGATION IN NEURONS AND NEURODEGENERATIVE DISEASES” (THE GOVERNING COUNCIL OF THE UNIVERSITY OF TORONTO, priority 2021, published 2025)

Assays:
[1] = system: a-syn oligomers in HEK293 cells; assay: Oligomers screen (split YFP-a-syn protein fragment complementation, FACS); format: cell-based, human; settings: for Reads GFP High: FACS fraction GFP High; for Reads GFP Inter: FACS fraction GFP Inter; for Reads GFP Neg: FACS fraction GFP Neg
Source text: To detect a-syn oligomers, a protein fragment complementation assay (PCA) of a-syn oligomerization in HEK293 cells (14) was used. In this assay, human A53T a-syn was fused to either the C- or N-terminal half of yellow fluorescent protein (YFP). No fluorescence is detectable while a-syn exists in monomers but, when a-syn oligomerizes, the two halves of YFP come in close enough proximity to form a functional, spontaneously fluorescent protein. […] By using fluorescence activated cell sorting (FACS), cells expressing Flag-tagged peptides that directly or indirectly interfered with a-syn oligomer formation were isolated and then the peptides were identified from genomic DNA (FIG. 1A). The screens yielded 10 hits (Table 1). The hit with the most reads (i.e., the most abundant) was the same peptide in all screens: IPIQLKA (SEQ ID NO: 1) (PDpep1) (Table 2). […] Lead peptide targets CHMP2B, a member of ESCRT-III
(§1) PCR primers that included the Illumina adaptor sequences were used to amplify peptide coding sequences recovered from selection and cell sorting. Results were demultiplexed, and peptide counts were tallied. After demultiplexing, only reads with an average quality Phred score of >30 were selected, and frequencies were calculated. Finally, the reads were then normalized to the total number of peptides read for that sample population, and a scalar factor was applied. In parallel, ˜25 individual colonies were Sanger sequenced to compare to the NGS data.
(§2) Lentiviruses were made in a 15 cm dish format by transfecting packaging cells (293T) with a three-plasmid system as previously described. Viral transduction of HEK293T cells, tet-off split luciferase a-syn cells, tet-off parent cells, and SH-SY5Y cells were performed with a multiplicity of infection of 0.3 (MOI=0.3). Infected cells were selected in puromycin-containing medium to eliminate uninfected cells and three aliquots of cells were collected for sampling of the initial (TO) cell population. Cells were treated with MG132 at concentrations of 0 μM, 10 μM, 25 μM or 50 μM. For the cell viability screen, surviving cells were collected and gDNA was extracted for identification of peptide inhibitors of cell toxicity. For the inhibition of a-syn aggregation screen, split YFP-a-syn constructs were transfected following stable expression of the peptides. Cells were sorted based on their GFP fluorescence intensities with a FACSVantage SE cell sorter (BD Bioscience).
Cells were harvested by trypsin treatment and centrifuged at 500×g for 5 minutes. The pellet was resuspended in ice-cold PBS and centrifuged again. The pellet was then resuspended at a concentration of 4×10^6 cells/ml in the sorting buffer, which is PBS containing 100 Kunitz Dnase l/ml, 10 μg/ml propidium iodide (Sigma) and 2% FBS. The sorting solution was also supplemented with either 10 μM forskolin, 100 μM 5,6-Dichlorobenzimidazole riboside (DRB, Sigma), 10 μM forskolin (Sigma) and 100 μM DRB or DMSO, as a control. The cells were then sent through a 40 μm filter to remove large clumps and loaded into either a FACScan Flow Cytometer (BD Bioscience) for cell analysis or a FACSVantage SE cell sorter (BD Bioscience) for cell sorting. The cells with positive propidium iodide staining (i.e., dead cells) were first eliminated from the analysis or sorting pool. For cell sorting, the desired population, either the most or least bright EGFP-positive cells, according to the purpose of the experiments (see Results), was sorted into either 15 ml conical tubes or 96-well plates, which both contained complete DMEM culture media.
Genomic DNA (gDNA) from peptide expressing cells at different time-points was extracted using QIAamp DNA Blood Mini Kit. PCR amplifications of peptides from gDNA in parallel with the lentiviral plasmid library (naïve library) were performed using indexed Illumina PCR primers to incorporate both the Illumina adapter sequences and indexing sequences. […]

[2] = system: HEK293 cells overexpressing A53T a-syn; assay: Cytotoxicity screen of lentiviral 7-mer peptide library, Alpha syn A53T cells under MG132; format: cell-based, human; settings: for Reads 0 uM MG132 / Reads 10 UM MG132 / Reads 25 UM MG132 / Reads 50 UM MG132: normalized Illumina peptide counts
Source text: (§3) A screening system to discover candidate peptides to perturb endogenous PPIs based on libraries of short linear interaction motifs that mediate a large fraction (˜30%) of human PPIs (10-12) was recently developed. Here, a lentiviral library of 50,549 7-mer peptide motifs (13) on a green fluorescent protein (GFP) scaffold (FIG. 1A) was used. Cells in a pooled format were infected and the amino acid sequence of each peptide served as its own barcode. By using a low multiplicity of infection followed by puromycin selection, each infected cell expressed one unique GFP-peptide. Peptides that reduced a-syn-mediated cytotoxicity or a-syn oligomers in parallel (FIG. 1A), were screened for.
(§4) To cause cytotoxicity relevant to PD, proteostatic stress in HEK293 cells was induced by inhibiting the proteasome with MG132 and inducing the overexpression of human a-syn (WT) from idiopathic PD in one screen and the more toxic A53T mutant from familial PD in a second screen. The combination of a-syn overexpression and pharmacological proteasome inhibition led to death of most cells, with only those that expressed a protective peptide surviving. By extracting genomic DNA from the surviving cells and amplifying the peptide coding sequences, the protective peptides (FIG. 1A) were identified.
as §1, §2
(§5) Genomic DNA (gDNA) from peptide expressing cells at different time-points was extracted using QIAamp DNA Blood Mini Kit. PCR amplifications of peptides from gDNA in parallel with the lentiviral plasmid library (naïve library) were performed using indexed Illumina PCR primers to incorporate both the Illumina adapter sequences and indexing sequences. Each 50 μl reaction contained 3.2 μg of template, 2×PCR buffer, 2× enhancer solution, 300 μM each dNTP, 900 nM each of Adapter A (5′-[…]-[…]-3′) (SEQ ID NO: 42) and Adapter B (5′-[…]-[…]-3′) (SEQ ID NO: 43), 1 mM MgSO4, 3.75 units of Platinum Pfx polymerase, and water to 50 μl. The PCR reaction was performed by denaturing at 94° C. for 5 minutes, followed by cycling (94° C. for 30 seconds, 65° C. for 30 seconds, 68° C. for 30 seconds)×28 cycles, 68° C. for 5 minutes, then cooling to 4° C. The resulting 244 bp product was purified by electrophoresis in 2% agarose followed by gel extraction. Peptide libraries were quantified using Quant-It assay (Invitrogen) and pooled. […]

[3] = system: HEK293 cells overexpressing human a-syn (WT); assay: Cytotoxicity screen of lentiviral 7-mer peptide library, Alpha Syn (WT) cells under MG132; format: cell-based; settings: for Reads 0 uM MG132 / Reads 10 UM MG132 / Reads 25 UM MG132: normalized Illumina peptide counts
Source text: as §3, §4, §1, §2, §5

Row | Substance | Slope Norm Reads [2] | Reads 0 uM MG132 [2] | Reads 10 UM MG132 [2] | Reads 25 UM MG132 [2] | Reads 50 UM MG132 [2] | Slope Norm Reads [3] | Reads 0 uM MG132 [3] | Reads 10 UM MG132 [3] | Reads 25 UM MG132 [3] | other results
1 | MQMKLSQ [7-mer library hit, oligomers screen] | – | – | – | – | – | – | – | – | – | Reads Ratio [1]: 36.15; Reads GFP High [1]: 1; Reads GFP Inter [1]: 0; Reads GFP Neg [1]: 70
2 | WPRYPHI [7-mer library hit, oligomers screen] | – | – | – | – | – | – | – | – | – | Reads Ratio [1]: 47.36; Reads GFP High [1]: 1; Reads GFP Inter [1]: 0; Reads GFP Neg [1]: 92
3 | GWTTVRR [7-mer library hit, A53T screen] | 0.94 | 15 | 1 | 29 | 322 | – | – | – | – | –
4 | QAELSNS [7-mer library hit, A53T screen] | 0.69 | 6 | 8 | 10 | 235 | – | – | – | – | –
5 | VYLDILG [7-mer library hit, oligomers screen] | – | – | – | – | – | – | – | – | – | Reads Ratio [1]: 30.55; Reads GFP High [1]: 1; Reads GFP Inter [1]: 0; Reads GFP Neg [1]: 59
6 | NNQYSFV [7-mer library hit, oligomers screen] | – | – | – | – | – | – | – | – | – | Reads Ratio [1]: 30.04; Reads GFP High [1]: 1; Reads GFP Inter [1]: 0; Reads GFP Neg [1]: 58
7 | CMVHSAG [7-mer library hit, Alpha Syn screen] | – | – | – | – | – | 0.08 | 4 | 14 | 33 | –
8 | EDVNKCV [7-mer library hit, A53T screen] | 0.68 | 6 | 6 | 13 | 233 | – | – | – | – | –
9 | LPSKIYK [7-mer library hit, oligomers screen] | – | – | – | – | – | – | – | – | – | Reads Ratio [1]: 29.53; Reads GFP High [1]: 1; Reads GFP Inter [1]: 0; Reads GFP Neg [1]: 57
10 | LQVGVAV [7-mer library hit, Alpha Syn screen] | – | – | – | – | – | 0.09 | 1 | 25 | 23 | –
11 | LSGECVP [7-mer library hit, Alpha Syn screen] | – | – | – | – | – | 0.07 | 3 | 28 | 28 | –
12 | GAAAGGT [7-mer library hit, Alpha Syn screen] | – | – | – | – | – | 0.06 | 1 | 10 | 17 | –
13 | AAYNLCA [7-mer library hit, Alpha Syn screen] | – | – | – | – | – | 0.07 | 1 | 14 | 19 | –
14 | PAMQIDG [7-mer library hit, A53T screen] | 0.96 | 32 | 20 | 53 | 337 | – | – | – | – | –
15 | PLPTGMG [7-mer library hit, Alpha Syn screen] | – | – | – | – | – | 0.08 | 1 | 3 | 20 | –
16 | QSVLQQV [7-mer library hit, A53T screen] | 0.82 | 13 | 2 | 12 | 282 | – | – | – | – | –
17 | QSPSSAW [7-mer library hit, A53T screen] | 0.82 | 9 | 45 | 59 | 284 | – | – | – | – | –
18 | RAPSCHL [7-mer library hit, Alpha Syn screen] | – | – | – | – | – | 0.15 | 1 | 13 | 33 | –
19 | LPASMPC [7-mer library hit, Alpha Syn screen] | – | – | – | – | – | 0.09 | 2 | 16 | 27 | –
20 | QSVVTAP [7-mer library hit, A53T screen] | 1.38 | 8 | 6 | 37 | 465 | – | – | – | – | –
21 | CKYRSVL [7-mer library hit, A53T screen] | 1.30 | 5 | 7 | 11 | 438 | – | – | – | – | –
22 | QVSVAQQ [7-mer library hit, A53T screen] | 0.69 | 45 | 13 | 120 | 246 | – | – | – | – | –
23 | DWLMVNL [7-mer library hit, Alpha Syn screen] | – | – | – | – | – | 0.13 | 1 | 13 | 29 | –
